# What was measured:
# DapE = DapE (Mycobacterium tuberculosis, UniProt P9WHS9)
# Rv0309 = Rv0309 (Mycobacterium tuberculosis, UniProt O07236)
# Rv1723 = Rv1723 (Mycobacterium tuberculosis, UniProt P71981)
# Chain of Rv1723 (P71981 1-415): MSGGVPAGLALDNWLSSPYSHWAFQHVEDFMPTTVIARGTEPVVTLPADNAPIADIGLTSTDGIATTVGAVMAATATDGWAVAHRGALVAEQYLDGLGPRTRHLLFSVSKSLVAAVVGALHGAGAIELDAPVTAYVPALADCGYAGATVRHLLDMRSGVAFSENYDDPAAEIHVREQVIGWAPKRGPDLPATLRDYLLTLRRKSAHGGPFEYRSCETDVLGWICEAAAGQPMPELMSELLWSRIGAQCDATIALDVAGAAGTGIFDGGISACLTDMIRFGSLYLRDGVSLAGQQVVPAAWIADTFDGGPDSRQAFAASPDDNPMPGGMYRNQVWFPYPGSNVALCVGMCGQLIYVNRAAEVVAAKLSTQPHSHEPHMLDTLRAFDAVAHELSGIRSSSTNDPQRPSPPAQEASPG
# Chain of DapE (P9WHS9 whole entry, looked up): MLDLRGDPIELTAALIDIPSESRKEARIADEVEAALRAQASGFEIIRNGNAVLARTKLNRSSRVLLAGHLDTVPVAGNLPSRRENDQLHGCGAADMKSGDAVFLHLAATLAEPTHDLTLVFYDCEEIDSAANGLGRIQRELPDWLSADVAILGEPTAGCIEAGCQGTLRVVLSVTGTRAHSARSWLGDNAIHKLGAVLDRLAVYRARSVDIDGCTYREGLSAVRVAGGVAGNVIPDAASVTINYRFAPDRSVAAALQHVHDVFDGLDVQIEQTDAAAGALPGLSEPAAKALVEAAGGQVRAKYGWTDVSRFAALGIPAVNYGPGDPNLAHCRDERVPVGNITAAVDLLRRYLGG
# Chain of Rv0309 (O07236 19-218 limits assumed): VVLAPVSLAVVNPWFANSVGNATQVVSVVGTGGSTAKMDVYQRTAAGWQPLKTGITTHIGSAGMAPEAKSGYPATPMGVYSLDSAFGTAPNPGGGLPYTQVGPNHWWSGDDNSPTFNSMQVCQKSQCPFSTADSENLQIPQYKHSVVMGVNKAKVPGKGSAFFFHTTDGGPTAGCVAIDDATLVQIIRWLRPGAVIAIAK
compound,measurement,setting,value
C[C@@H](O)[C@H]1C(=O)N2C(C(=O)O)=C(S[C@H]3C[C@@H](C(=O)N(C)C)N(C(=O)CCCCC[N+]4=C(/C=C/C=C/C=C5/N(C)c6ccc(S(=O)(=O)O)cc6C5(C)C)C(C)(C)c5cc(S(=O)(=O)[O-])ccc54)C3)[C@H](C)[C@H]12 [Mero-sCy5],fluorescent gel labelling (SDS-PAGE),DapE,Mero-sCy5 labeled all enzymes
C[C@@H](O)[C@H]1C(=O)N2C(C(=O)O)=C(S[C@@H]3CN[C@H](C(=O)N(C)C)C3)[C@H](C)[C@H]12 [meropenem],native MS (acyl-enzyme); competition of Mero-sCy5 labelling; inhibition of nitro,Rv0309,Rv0309 partially bound meropenem
CO[C@@]1(NC(=O)Cc2cccs2)C(=O)N2C(C(=O)O)=C(COC(N)=O)CS[C@@H]21 [cefoxitin],native MS (acyl-enzyme),Rv1723,binding to cefoxitin was only partial

# From article doi:10.1101/2025.02.25.640225v1 (biorxiv, 2025)
